Patent US20150190416A1, “FILAGGRIN PRODUCTION PROMOTER, THERAPEUTIC AGENT FOR DISEASES ASSOCIATED WITH REDUCTION IN PRODUCTION OF FILAGGRIN, AND METHOD FOR SCREENING FOR SAID THERAPEUTIC AGENT” (KYOTO UNIVERSITY, priority 2012, published 2015)

Tests used:
GPR22 = assay: G protein-coupled receptor (GPCR) array in NHEK cells, GPR22 (Example 3); format: cell-based, human; conditions: Compound 1 1 μM, 3 days
Description: In this example, the expression-increasing effect of Compound 1 on a GPCR in NHEK cells was confirmed by using a GPCR array.
(§1) 1) 5×10^4 cells/well of NHEK cells (Invitrogen) were plated on a 24-well plate, and then 500 μl of a culture medium containing a medium for proliferating normal human epidermal keratinocytes (HuMedia-KG2, KURABO INDUSTRIES LTD.) supplemented with hEGF (0.1 ng/ml), insulin (10 μg/ml), hydrocortisone (0.5 μg/ml), gentamycin (50 μg/ml), amphotericin B (50 ng/ml), and bovine brain pituitary extract (BPE) (0.4%, v/v) were added to the plate, and the cells were cultured under the conditions of 37° C. and 5% CO2 for from 3 to 4 days until the 80 to 85% confluent state was achieved.
2) Next, a DMSO solution of Compound 1 was added to the medium at 1 μM per well, and culture was further conducted for 3 days without changing the medium. In addition, regarding the system to which only CaCl2 (1.5 mM in terms of Ca) as Ca was added and the system to which both Compound 1 and CaCl2 (1.5 mM in terms of Ca) as Ca were added, the culture was conducted in a similar manner for 3 days. As a control example, a solvent only (vehicle) was added.
3) An extraction reagent (TRIzol™, Invitrogen) was used, and according to the manufacturer's protocol, total RNA was extracted from each of cells treated in the step 2). […]

[1] = tested on: atopic dermatitis mouse model (NC/Nga); assay: Dermatitis-alleviating effect in atopic dermatitis mouse model (NC/Nga) (Example 14); format: in vivo
Description: Experiments were conducted with raising 6- to 10-week-old atopic dermatitis-developing NC/Nga mice with mites (Japan SLC, Inc.) under a normal environment. Namely, the dermatitis-alleviating effect was measured by the oral administration of 500 μl of a solution obtained by dissolving Compound 1 at 0.75 mg/ml in a methyl cellulose solution (0.5 W/V % Methyl Cellulose 400 Solution, Wako, 133-14255) to an NC/Nga mouse developing dermatitis majorly in the ear auricles and the head (0.375 mg of Compound 1 was administered to the mouse per time) every other day. As a control, 500 μl of the methylcellulose solution were administered orally every other day.
With regard to clinical manifestations, the evaluation was conducted on a four-point scale of none (0), weak (1), moderate (2), and severe (3) by visual inspection for four items of erythema, edema, erosion, and squama. The evaluated values of the four items were summed to give a score before the start of oral administration (0 wk), 4 weeks after the oral administration (4 wk), and 8 weeks after the oral administration (8 wk), and then the clinical manifestations of a mouse model were measured as a clinical score. Further, the oral administration was ended 8 weeks after the start of oral administration, and thereafter, the mouse was continued to be kept under the same conditions. 4 weeks after the end of oral administration (12 wk after the start of oral administration), clinical manifestations were scored in the same manner.
A TEWL was measured 8 and 12 weeks after the start of oral administration in the above-mentioned section (i) using a tape type closed chamber system water transpiration measuring instrument VAPO SCAN AS-VT100RS (ASAHI BIOMED) according to the manufacturer's manual.
The appearances of the developing NC/Nga mice 12 weeks after the start of oral administration (the oral administration was ended 8 weeks after the start of oral administration) in (i) described above were shown in FIGS. 16(a) and 16(b).

GPR142 = assay: FLG mRNA and GPR142 mRNA in GPR142-overexpressing NHEK cells (Example 7); format: cell-based, human; conditions: 10 nM, 1 day
Description: In this example, the FLG mRNA expression-inducing effect of Compound 1 in GPR142-overexpressing NHEK cells was confirmed.
as §1, with “24-well plate. Then,” for “24-well plate, and then 500 μl of”, “v/v) was” for “v/v) were”, “5% CO2.” for “5% CO2 for from 3 to 4 days until the 80 to 85% confluent state was achieved.”
2) A GPR142pCXN mammalian expression vector was prepared by incorporating a human GPR142 gene coding region containing the base sequence set forth in SEQ ID NO: 2 into the EcoRI restriction site of the cloning site in a mammalian expression vector pCXN (Gene 108: 193-199 (1991)). […]
5) An extraction reagent (TRIzol™, Invitrogen) was used, and according to the manufacturer's protocol, total RNA was extracted from each of cells treated with the medicament. […] Real-time PCR was conducted by using the same primers as those for GPR142, FLG, and GAPDH used in Example 4 and SYBR™ PremixEx Taq (Takara) with a CFX96 real-time PCR instrument according to the manufacturer's protocol, and the amounts of GPR142 mRNA and FLG mRNA were measured. […]

CCc1ccc(OCc2ccccc2C(=O)Nc2ccc3nc(C)cc(N)c3c2)cc1.Cl [Compound 1, N-(4-Amino-2-methyl-6-quinolyl)-2-[(4-ethylphenoxy)methyl]benzamide hydrochloride]
GPR22 mRNA expression (GPCR array), in words (GPR22; Ca 1.5 mM): expression was induced | GPR22: cycle number (ΔCt value) to 18S ribosomal RNA (GPR22; CaCl2 1.5 mM in terms of Ca, control 29.2): 6.7 | appearance of developing NC/Nga mouse ([1]; 12 weeks after start of oral administration, 4 weeks after the end): almost good clinical manifestations were kept | amount of water transpiration (TEWL) ([1]; NC/Nga mouse, 4 weeks after the end of oral administration (12 weeks after the start)): suppressed as compared to the control | clinical manifestations of dermatitis (clinical score) ([1]; NC/Nga mouse, 4 weeks after the end of oral administration (12 wk after the start)): symptoms of dermatitis were suppressed as compared to the control | clinical manifestations of dermatitis (clinical score) ([1]; NC/Nga mouse, oral 0.375 mg every other day, 8 weeks after the start of oral administration): symptoms of dermatitis were alleviated | transepidermal water loss (TEWL) ([1]; developing NC/Nga mouse, oral 0.375 mg every other day, after 8 weeks, control about 60): about 10 g/h·m^2 | FLG mRNA expression (GAPDH ratio) (GPR142; GPR142-overexpressing NHEK cells): increased FLG mRNA expression | expression amount of GPR142 mRNA, increase as compared to the control (GPR142; NHEK cells): about 2.2 times
